Laboratory results reported in US20140314780A1, “Compositions Using Antibodies Directed to GPNMB and Uses Thereof” (Celldex Therapeutics, Inc., priority 2008, published 2014).
“Also recorded” adds a separate entry of the source.

Assays:
Assay type in all cases: cell-based, human
UACC62 melanoma cells = experiment: In vitro growth-inhibition/cytotoxicity assay, UACC62 cells; conditions: 0.16 μg/mL, 72 hours, trypan blue
GPNMB = experiment: Immunoblotting for GPNMB on whole-cell lysates of cancer cell lines after drug exposure
Excerpt: Cancer cell lines were of human origin and were obtained from the American Type Culture Collection (Manassas, Va.) and from the National Cancer Institute (Bethesda, Md.) and cultured in RPMI-1640 supplemented with 10% FBS (growth media). Sources of reagents were as follows: RAFKi (553013), MEKi (U0126), MEKi (PD98059), MEKi (444939), ERKi (FR180204), p38 MAPKi (SB202190), p38 MAPKi (SB203580), aurora kinase inhibitor (189404), JNK inhibitor (420119), MMPi (GM6001) were from EMD Chemicals (San Diego, Calif.). ERKi (A6355), RAFKi: (GW5074), ammonium chloride (NH4Cl), chloroquine, monensin, cyclohexamide and emetine were from Sigma (Saint Louis, Mo.). HSP90i (geldanamycin) was from AG Scientific (San Diego, Calif.) and imatinib (Gleevec) was purchased from a pharmacy.
Cells were seeded in 6-well tissue culture dishes at a subconfluent density and allowed to attach overnight. For harvesting cell lysates, media was removed, cells were briefly washed with serum-free media and then 1× Tris-glycine SDS sample buffer (Invitrogen, Carlsbad, Calif.) supplemented with 10 mM dithiothreitol (Sigma) was added directly to the wells. Cell lysates were then collected and boiled for 10 minutes. For preparing conditioned media, drug treatments were performed in a minimum volume of growth media (1.5 mL/well). Following 48 hours of incubation, conditioned media was collected, briefly microfuged, mixed with an equal volume of 2× Tris-glycine SDS sample buffer (Invitrogen, Carlsbad, Calif.) supplemented with 20 mM dithiothreitol (Sigma) and boiled for 10 minutes. For cell lysates, samples were quantified and an equal quantity of protein/lane was resolved on 4-20% gradient polyacrylamide gels (Invitrogen) and then transferred to nitrocellulose filters (Invitrogen). The volume of conditioned media loaded/lane was adjusted based on the protein concentration determined in the respective cell lysates. Immunoblotting was performed using standard procedures and the following primary antibodies: MARTI (sc-20032), TYRP2 (sc-25544), TYRP1 (sc-25543), PMEL17 (sc-15010), MAGEA1 (sc-20033), MCSP (sc-20162), MTf (sc-26651), MCAM (sc-18942), pp-ERK (sc-7976) and ERK (sc-94) (preceding antibodies were purchased from Santa Cruz Biotechnologies, Santa Cruz, Calif.), GPNMB (AF2550; R & D Systems, Minneapolis Minn.), actin (A5060; Sigma). Following incubation with the appropriate horseradish peroxidase-conjugated secondary antibodies, enhanced chemiluminescence (GE Healthcare, Chalfont St. Giles, United Kingdom) was used for detection.

phospho-ERK (pp-ERK) = experiment: Immunoblotting for phospho-ERK (level of ERK activation)
Excerpt: In the experiment presented in FIG. 2A, potential inhibition of the ERK pathway was investigated by immunoblotting for phospho-ERK (pp-ERK), which represents the active form of this signaling molecule.

[1] = system: GPNMB surface expression on SKMEL2 melanoma cells; experiment: Flow cytometry of GPNMB surface expression, SKMEL2 cells
Procedure: (§1) Cells were seeded in 6-well tissue culture dishes at a subconfluent density and allowed to attach overnight. The following day, cells were treated as indicated in the figures/legends, harvested with versene (Invitrogen), washed with PBS and incubated with primary antibody (10 μg/mL) diluted in staining buffer (PBS pH 7.4, 4% FBS, 0.1% sodium azide) for 30 minutes on ice. […] After incubation with primary antibody, samples were washed with staining buffer and then incubated with secondary antibody (PE-conjugated anti-human antibody; 1:100) for 30 minutes on ice. After incubation, samples were washed with staining buffer and examined on a Becton Dickinson FACSCalibur flow cytometer (BD Immunocytometry Systems, San Jose, Calif.). Data analysis was performed with Becton Dickinson Cell Quest software and the geometric mean fluorescence intensity (GeoMean) was determined for each sample.
(§2) For the data shown in Table 37, flow cytometry was performed on intact, non-permeabilized cells using the indicated primary monoclonal antibodies. […] The results are reported as GeoMeans. For the data shown in the top panel of Table 37, A375 (melanoma) or SF539 (glioblastoma) cells were treated with the indicated concentrations of MEKi (U0126), RAFKi (553013) or ERKi (FR180204) for 12, 24 or 48 hours prior to analysis. For the data shown in the bottom left panel of Table 37, SKMEL2 (melanoma) cells were treated with MEKi (U0126; 10 uM), imatinib (20 uM), p38i (p38 MAPKi SB202190; 50 uM), NH4Cl (ammonium chloride; 20 mM) or CLQ (chloroquine; 20 uM) for 48 hours prior to analysis. For the data shown in the bottom right panel of Table 37, WM2664 (melanoma) cells were treated with MON (monensin) or MMPi (GM6001) for 48 hours prior to analysis.

[2] = system: GPNMB surface expression on A375 melanoma cells; experiment: Flow cytometry of GPNMB surface expression, A375 cells; conditions: for GPNMB surface expression, flow cytometry GeoMean: A375, CR011 (anti-GPNMB) primary antibody
Procedure: as §1
as §2, with “For the data shown in the top panel of Table 37, A375 (melanoma) or SF539 (glioblastoma) cells were treated with the indicated concentrations of MEKi (U0126), RAFKi (553013) or ERKi (FR180204) for 12, 24 or 48 hours prior to analysis.” left out

[3] = system: GPNMB surface expression on SF539 glioblastoma cells; experiment: Flow cytometry of GPNMB surface expression, SF539 cells; conditions: SF549, CR011 (anti-GPNMB) primary antibody
Procedure: as §1
as §2, with “For the data shown in the top panel of Table 37, A375 (melanoma) or SF539 (glioblastoma) cells were treated with the indicated concentrations of MEKi (U0126), RAFKi (553013) or ERKi (FR180204) for 12, 24 or 48 hours prior to analysis.” left out

[4] = system: GPNMB surface expression on WM2664 melanoma cells; experiment: Flow cytometry of GPNMB surface expression, WM2664 cells; conditions: for GPNMB surface expression, flow cytometry GeoMean: WM2664, CR011 (anti-GPNMB) primary antibody
Procedure: as §1, with “The” for “Cells were seeded in 6-well tissue culture dishes at a subconfluent density and allowed to attach overnight. The”
For the data shown in Table 37, flow cytometry was performed on intact, non-permeabilized cells using the indicated primary monoclonal antibodies. The CR011 antibody utilized was not MMAE-conjugated, but is the same antibody used to generate CR011-vcMMAE. The results are reported as GeoMeans. For the data shown in the top panel of Table 37, A375 (melanoma) or SF539 (glioblastoma) cells were treated with the indicated concentrations of MEKi (U0126), RAFKi (553013) or ERKi (FR180204) for 12, 24 or 48 hours prior to analysis. For the data shown in the bottom left panel of Table 37, SKMEL2 (melanoma) cells were treated with MEKi (U0126; 10 uM), imatinib (20 uM), p38i (p38 MAPKi SB202190; 50 uM), NH4Cl (ammonium chloride; 20 mM) or CLQ (chloroquine; 20 uM) for 48 hours prior to analysis. For the data shown in the bottom right panel of Table 37, WM2664 (melanoma) cells were treated with MON (monensin) or MMPi (GM6001) for 48 hours prior to analysis.

shed GPNMB = experiment: GPNMB shedding: immunoblotting of conditioned media (supernatants); conditions: conditioned media of WM2664, UACC62; 48 hours (FIG. 7A, 7B)
Excerpt: Shedding of membrane proteins is a common phenomenon that may affect ADC activity. To investigate potential GPNMB shedding, conditioned media collected from melanoma cell lines was immunoblotted for GPNMB (FIG. 7A). […] Shed GPNMB was also readily detected in conditioned media harvested from several other melanoma and glioblastoma cell lines examined, although a very low level of shed GPNMB was found in conditioned media harvested from A375 melanoma cells, a finding which is consistent with the low basal level of GPNMB expression by these cells.

Question: What does the source list for “CR011-vcMMAE: antibody-drug conjugate of anti-GPNMB antibody CR011 with Auristatin E (vcMMAE) through a protease-cleavable linker”?
Answer: growth-inhibition (UACC62 melanoma cells; UACC62 cells not pretreated with the MEK inhibitor): little growth-inhibition; growth-inhibition (UACC62 melanoma cells; UACC62 cells pretreated with the MEK inhibitor (U0126 1 μM, 48 hours)): strong growth-inhibition

Question: `Cc1ccc(NC(=O)c2ccc(CN3CCN(C)CC3)cc2)cc1Nc1nccc(-c2cccnc2)n1` [imatinib] was tested. Which “GPNMB expression (immunoblotting)” value (GPNMB; melanoma lines SKMEL2, A375, WM2664, MEWO, 48 hours (FIG. 6A)) did it give?
Answer: Its value is “induced”.

Question: And the “GPNMB expression (immunoblotting)” value (GPNMB; variety of melanoma and glioblastoma cell lines, 48 hours (FIG. 6B, 6C))?
Answer: The value was “strongly induced; also recorded: robust GPNMB expression”.

Question: What about the phospho-ERK (phospho-ERK (pp-ERK); melanoma and glioblastoma cell lines, imatinib 20 μM, 48 hours (FIG. 6B)) of the same compound?
Answer: Its phospho-ERK is “without inhibiting phospho-ERK”.

Question: And the “GPNMB surface expression, flow cytometry GeoMean” value ([1]; SKMEL2, CR011 (anti-GPNMB) primary antibody, MEKi (U0126) 10 uM, imatinib 20 uM, p38i (SB202190) 50 uM)?
Answer: Its value is 103.7.

Question: And the GPNMB surface-expression ([1]; SKMEL2 cells, 48 hours (Table 37, bottom left))?
Answer: The GPNMB surface-expression was “increase GPNMB surface-expression”.

Question: For `Nc1n[nH]c2nnc(-c3c(-c4ccccc4)nn4ccccc34)cc12` [FR180204, 5-(2-phenylpyrazolo[1,5-a]pyridin-3-yl)-1H-pyrazolo[3,4-c]pyridazin-3-amine], which “GPNMB induction (immunoblotting)” value (GPNMB; A375 cells, only following an exposure time of 48 hours (FIG. 3B, bottom)) is on record?
Answer: Its value is “strong induction”.

Question: And the “GPNMB induction (immunoblotting)” value (GPNMB; SKMEL2 or SF539 cells (FIG. 3B, bottom))?
Answer: The value was “Little or no GPNMB induction”.

Question: What about the “inhibition of the ERK pathway (phospho-ERK levels)” value (phospho-ERK (pp-ERK); FIG. 3B bottom, A375, SKMEL2, SF539) of the same compound?
Answer: Its value is “relatively weak inhibition”.

Question: And the “GPNMB surface expression, flow cytometry GeoMean” value ([2]; ERKi (FR180204) 3.1 uM, 12 h)?
Answer: The value was 13.0.

Question: And the “GPNMB surface expression, flow cytometry GeoMean” value ([2]; ERKi (FR180204) 3.1 uM, 24 h)?
Answer: The value was 13.5.

Question: What about the “GPNMB surface expression, flow cytometry GeoMean” value ([2]; ERKi (FR180204) 3.1 uM, 48 h) of the same compound?
Answer: The value was 13.1.

Question: What about the “GPNMB surface expression, flow cytometry GeoMean” value ([2]; ERKi (FR180204) 50 um, 12 h) of the same compound?
Answer: Its value is 13.0.

Question: What about the “GPNMB surface expression, flow cytometry GeoMean” value ([2]; ERKi (FR180204) 50 um, 24 h) of the same compound?
Answer: The value was 14.9.

Question: What about the “GPNMB surface expression, flow cytometry GeoMean” value ([2]; ERKi (FR180204) 50 um, 48 h) of the same compound?
Answer: Its value is 50.3.

Question: What about the GPNMB surface expression ([2]; A375 melanoma, 12, 24 or 48 hours (Table 37, top)) of the same compound?
Answer: Its GPNMB surface expression is “induced GPNMB surface expression”.

Question: And the “GPNMB surface expression, flow cytometry GeoMean” value ([3]; ERKi (FR180204) 3.1 uM, 12 h)?
Answer: Its value is 32.6.

Question: What about the “GPNMB surface expression, flow cytometry GeoMean” value ([3]; ERKi (FR180204) 3.1 uM, 24 h) of the same compound?
Answer: The value was 33.7.

Question: What about the “GPNMB surface expression, flow cytometry GeoMean” value ([3]; ERKi (FR180204) 3.1 uM, 48 h) of the same compound?
Answer: Its value is 32.6.

Question: And the “GPNMB surface expression, flow cytometry GeoMean” value ([3]; ERKi (FR180204) 50 um, 12 h)?
Answer: The value was 31.3.

Question: And the “GPNMB surface expression, flow cytometry GeoMean” value ([3]; ERKi (FR180204) 50 um, 24 h)?
Answer: Its value is 30.7.

Question: And the “GPNMB surface expression, flow cytometry GeoMean” value ([3]; ERKi (FR180204) 50 um, 48 h)?
Answer: Its value is 30.6.

Question: How did the “GPNMB surface expression, flow cytometry GeoMean” value ([4]; MMPi 25 uM) turn out when `CNC(=O)[C@H](Cc1c[nH]c2ccccc12)NC(=O)[C@@H](CC(=O)NO)CC(C)C` [GM6001] was run?
Answer: Its value is 55.9.

Question: And the “GPNMB surface expression, flow cytometry GeoMean” value ([4]; MMPi 50 uM)?
Answer: The value was 68.9.

Question: And the “GPNMB surface expression, flow cytometry GeoMean” value ([4]; MMPi 100 uM)?
Answer: Its value is 66.8.

Question: What about the GPNMB surface expression ([4]; melanoma cells (WM2664), 48 hours (Table 37, bottom right)) of the same compound?
Answer: The GPNMB surface expression was “increased GPNMB surface expression”.

Question: And the GPNMB shedding (shed GPNMB)?
Answer: Its GPNMB shedding is “decreased or eliminated”.
